Experimental data reported in patent publication US10000471B2, “Pyrazole P38 map kinase inhibitors” (Respivert Limited, priority 2010, dated 2018).

What was measured:
[1] = biological target: T1, p38 MAPKα isoform (MAPK14) (Homo sapiens, UniProt Q16539); assay: Enzyme inhibition assay (FRET, Z-LYTE), p38 MAPKα via MAPKAP-K2 activation; format: biochemical; conditions: read-out: Enzyme Inhibition IC50 p38α
T1 construct: purchased Invitrogen
Summary of the method: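 Recombinant p38 MAPKα was preincubated with compound for 2 h at RT. Its activity was measured indirectly through activation/phosphorylation of downstream MAPKAP-K2, with a Z-LYTE FRET peptide read-out (coumarin/fluorescein ratio) after a 1 h development step. IC50 came from concentration-response curves of percent inhibition versus an uninhibited control.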

[2] = system: TNFα release in d-U937 cells; assay: LPS-induced TNFα release in d-U937 cells; format: cell-based, human; conditions: Homo sapiens, dU937, relative to 10 μg/mL BIRB796, read-out: LPS/TNFα REC50 d-U937
Summary of the method: (§1)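 PMA-differentiated (100 ng/ml, 48–72 hr) U937 macrophage-type cells pre-incubated 2 hr with compound, then stimulated 4 hr with 0.1 μg/mL E. coli O111:B4 LPS; supernatant TNFα and IL-8 measured by sandwich ELISA. TNFα inhibition expressed relative to 10 μg/mL BIRB796, giving REC50; IL-8 inhibition versus vehicle, giving IC50.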

[3] = system: TNFα release in THP-1 cells; assay: LPS-induced TNFα release in THP-1 cells; format: cell-based, human; conditions: Homo sapiens
Summary of the method: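 Human monocytic THP-1 cells stimulated with 3 μg/mL E. coli LPS for 4 hr; supernatant TNFα measured by sandwich ELISA. Inhibition at each concentration versus vehicle control, IC50 from concentration-response curve.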

[4] = biological target: T2, p38 MAPKγ (MAPK12) (Homo sapiens, UniProt P53778); assay: Enzyme inhibition assay (FRET, Z-LYTE), p38 MAPKγ; format: biochemical; conditions: read-out: Enzyme Inhibition IC50 p38γ
T2 construct: purchased Invitrogen
T2 sequence (P53778 1-367): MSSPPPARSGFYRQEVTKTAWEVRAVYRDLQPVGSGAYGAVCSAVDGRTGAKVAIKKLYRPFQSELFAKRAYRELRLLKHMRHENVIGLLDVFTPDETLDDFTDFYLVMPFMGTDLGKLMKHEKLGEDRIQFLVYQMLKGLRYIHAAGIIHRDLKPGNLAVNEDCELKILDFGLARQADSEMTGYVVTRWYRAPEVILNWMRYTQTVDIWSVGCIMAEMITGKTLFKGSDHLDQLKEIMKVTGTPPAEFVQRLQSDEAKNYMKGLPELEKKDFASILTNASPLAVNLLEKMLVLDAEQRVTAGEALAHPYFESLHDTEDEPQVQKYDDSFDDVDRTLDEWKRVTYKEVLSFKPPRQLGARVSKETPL
Summary of the method: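 Recombinant phosphorylated p38 MAPKγ preincubated 2 h at RT with compound in HEPES buffer, then 2 μM FRET peptide and 100 μM ATP added for 1 h; protease development 1 h. Coumarin/fluorescein emission ratio gave phosphorylation; IC50 from concentration-response versus uninhibited control.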

[5] = system: Differentiated U937 cells; assay: Cell viability MTT assay; format: cell-based, human; conditions: negative = apparent increase in viability; for MTT Assay (Viability) 4 h d-U937, percentage loss of cell viability: 4 hr in 5% FCS; for MTT Assay (Viability) 24 h d-U937, percentage loss of cell viability: 24 h in 10% FCS
Summary of the method: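 Differentiated U937 cells pre-incubated with compound either 4 hr in 5% FCS or 24 h in 10% FCS, then 1 hr MTT. Formazan dissolved in DMSO, absorbance at 550 nm. Percentage viability loss relative to 0.5% DMSO vehicle; apparent increases appear as negative percentages.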

[6] = system: ICAM-1 induction in BEAS2B cells; assay: Poly I:C-induced ICAM-1 induction in BEAS2B cells; format: cell-based, human; conditions: Homo sapiens, BEAS-2B, read-out: PolyIC/ICAM1 IC50 BEAS2B
Summary of the method: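 Human bronchial epithelial BEAS2B cells were pre-incubated with compound for 2 hr, then transfected with 1 μg/mL poly I:C. After 18 hr, surface ICAM-1 was measured by cell-based ELISA (OD450-655) and normalized to crystal violet cell counts (OD595). IC50 came from inhibition versus vehicle across the concentration-response curve.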

[7] = system: IL-8 release in d-U937 cells; assay: LPS-induced IL-8 release in d-U937 cells; format: cell-based, human; conditions: Homo sapiens, dU937
Summary of the method: as §1

T1 sequence (Q16539 whole entry, canonical isoform): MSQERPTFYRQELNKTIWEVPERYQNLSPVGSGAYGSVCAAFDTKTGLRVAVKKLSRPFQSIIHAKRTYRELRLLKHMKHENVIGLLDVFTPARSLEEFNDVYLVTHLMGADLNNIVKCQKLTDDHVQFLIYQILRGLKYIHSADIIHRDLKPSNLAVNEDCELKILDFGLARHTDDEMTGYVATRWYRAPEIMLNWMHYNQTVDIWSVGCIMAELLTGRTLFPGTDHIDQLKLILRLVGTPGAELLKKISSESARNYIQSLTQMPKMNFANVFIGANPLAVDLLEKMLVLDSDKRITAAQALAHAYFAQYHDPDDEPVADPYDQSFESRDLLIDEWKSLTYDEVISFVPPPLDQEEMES

Row | IC50 [1] | EC50 [2] | IC50 [3] | IC50 [4] | IC50 [7] | SMILES | MTT Assay (Viability) 4 h d-U937, percentage loss of cell viability [5] | MTT Assay (Viability) 24 h d-U937, percentage loss of cell viability [5] | IC50 [6]
1 | 164 nM | 2.5 nM | 1.3 nM | 152 nM | 6.5 nM | COCC(=O)Nc1cc(Oc2ccc(NC(=O)Nc3cc(C(C)(C)C)nn3-c3ccc(C)cc3)cc2C(F)(F)F)ccn1 [Example 30, N-(4-(4-(3-(3-tert-butyl-1-p-tolyl-1H-pyrazol-5-yl)ureido)-2-trifluoromethylphenoxy)pyridin-2-yl)-2-methoxyacetamide] | 3.3% | 61.6% | 6.9 nM
2 | 154 nM | 176 nM | 143 nM | 290 nM | 264 nM | COCC(=O)Nc1cc(Oc2ccc(NC(=O)Nc3cc(C(C)(C)C)nn3-c3ccc(C)cc3)cc2S(C)(=O)=O)ccn1 [Example 31, N-(4-(4-(3-(3-tert-butyl-1-p-tolyl-1H-pyrazol-5-yl)ureido)-2-methylsulfonylphenoxy)pyridin-2-yl)-2-methoxyacetamide] | 1.1% | 49.3% | 108 nM
3 | 42.9 nM | 0.6 nM | 1.3 nM | 148 nM | 29.1 nM | COCC(=O)Nc1cc(Oc2ccc(NC(=O)Nc3cc(C(C)(C)C)nn3-c3ccc(C)cc3)c(Br)c2)ccn1 [Example 32, N-(4-(3-bromo-4-(3-(3-tert-butyl-1-p-tolyl-1H-pyrazol-5-yl)ureido)phenoxy)pyridin-2-yl)-2-methoxyacetamide] | 17.2% | 65.3% | 6.5 nM
4 | 25.3 nM | 6.4 nM | 1.5 nM | 59.7 nM | 4.8 nM | COCC(=O)Nc1cc(Oc2ccc(NC(=O)Nc3cc(C(C)(C)C)nn3-c3ccc(C)cc3)cc2Br)ccn1 [Example 33, N-(4-(2-bromo-4-(3-(3-tert-butyl-1-p-tolyl-1H-pyrazol-5-yl)ureido)phenoxy)pyridin-2-yl)-2-methoxyacetamide] | −12.6% | 68.9% | 3 nM
5 | 134 nM | 0.3 nM | 0.4 nM | 24 nM | 2.2 nM | COCC(=O)Nc1cc(Oc2ccc(NC(=O)Nc3cc(C(C)(C)C)nn3-c3ccc(C)cc3)c(F)c2F)ccn1 [Example 34, N-(4-(4-(3-(3-tert-butyl-1-p-tolyl-1H-pyrazol-5-yl)ureido)-2,3-difluorophenoxy)pyridin-2-yl)-2-methoxyacetamide] | 2.4% | 82.1% | 2.5 nM
6 | 24.7 nM | 0.5 nM | 0.6 nM | 134 nM | 2.8 nM | COCC(=O)Nc1cc(Oc2ccc(NC(=O)Nc3cc(C(C)(C)C)nn3-c3ccc(C)cc3)c(Cl)c2F)ccn1 [Example 35, N-(4-(4-(3-(3-tert-butyl-1-p-tolyl-1H-pyrazol-5-yl)ureido)-3-chloro-2-fluorophenoxy)pyridin-2-yl)-2-methoxyacetamide] | −0.2% | 73.1% | 1.5 nM
7 | 18.4 nM | 0.7 nM | 2.2 nM | 380 nM | 3.4 nM | COCC(=O)Nc1cc(Oc2ccc(NC(=O)Nc3cc(C(C)(C)C)nn3-c3ccc(C)cc3)c(Cl)c2Cl)ccn1 [Example 36, N-(4-(4-(3-(3-tert-butyl-1-p-tolyl-1H-pyrazol-5-yl)ureido)-2,3-dichlorophenoxy)pyridin-2-yl)-2-methoxyacetamide] | −11.2% | 68.8% | 1.9 nM
8 | 102 nM | 1.9 nM | 1.8 nM | 159 nM | 6.9 nM | COCC(=O)Nc1cc(Oc2ccc(NC(=O)Nc3cc(C(C)(C)C)nn3-c3ccc(C)cc3)c(Cl)c2C(F)(F)F)ccn1 [Example 37, N-(4-(4-(3-(3-tert-butyl-1-p-tolyl-1H-pyrazol-5-yl)ureido)-3-chloro-2-trifluoromethylphenoxy)pyridin-2-yl)-2-methoxyacetamide] | −0.4% | 24.7% | 4 nM
9 | 63 nM | 54.1 nM | 3.7 nM | 35.9 nM | 160 nM | COCC(=O)Nc1cc(Oc2cc(Cl)c(NC(=O)Nc3cc(C(C)(C)C)nn3-c3ccc(C)cc3)cc2F)ccn1 [Example 38, N-(4-(4-(3-(3-tert-butyl-1-p-tolyl-1H-pyrazol-5-yl)ureido)-5-chloro-2-fluorophenoxy)pyridin-2-yl)-2-methoxyacetamide] | 0.6% | 64.1% | 24.8 nM
10 | 11.5 nM | 27 nM | 9.6 nM | 3470 nM | 108 nM | COCC(=O)Nc1cc(Oc2cc(Cl)c(NC(=O)Nc3cc(C(C)(C)C)nn3-c3ccc(C)cc3)cc2Cl)ccn1 [Example 39, N-(4-(4-(3-(3-tert-butyl-1-p-tolyl-1H-pyrazol-5-yl)ureido)-2,5-dichlorophenoxy)pyridin-2-yl)-2-methoxyacetamide] | 6.5% | −3.0% | 109 nM
11 | 0.3 nM | 1.6 nM | 0.7 nM | 189 nM | 2 nM | COCC(=O)Nc1cc(Oc2ccc(NC(=O)Nc3cc(C(C)(C)C)nn3-c3ccc(C)cc3)c3ncccc23)ccn1 [Example 40, N-(4-(8-(3-(3-tert-butyl-1-p-tolyl-1H-pyrazol-5-yl)ureido)quinolin-5-yloxy)pyridin-2-yl)-2-methoxyacetamide] | −10.7% | 28.4% | 16.6 nM
12 | 54.9 nM | 0.2 nM | 0.3 nM | 46.5 nM | 1.6 nM | COCC(=O)Nc1cc(Oc2ccc(NC(=O)Nc3cc(C(C)(C)C)nn3-c3ccc(O)cc3)c(Cl)c2Cl)ccn1 [Example 41, N-(4-(4-(3-(3-tert-butyl-1-(4-hydroxyphenyl)-1H-pyrazol-5-yl)ureido)-2,3-dichlorophenoxy)pyridin-2-yl)-2-methoxyacetamide] | −24.0% | 76.5% | 1.4 nM
13 | 14.6 nM | 1.3 nM | 0.7 nM | 28 nM | 1.1 nM | CNCC(=O)Nc1cc(Oc2ccc(NC(=O)Nc3cc(C(C)(C)C)nn3-c3ccc(OC)cc3)c(Cl)c2Cl)ccn1 [Example 42, N-(4-(4-(3-(3-tert-butyl-1-(4-methoxyphenyl)-1H-pyrazol-5-yl)ureido)-2,3-dichlorophenoxy)pyridin-2-yl)-2-(methylamino)acetamide] | −4.4% | 67.9% | 3.1 nM
